Data on three compounds can be found in ChEMBL document CHEMBL1146336, “The dicationic derivatives of DBTAA: Interactions with DNA/RNA and antiproliferative effects on human cell lines” (Bioorg Med Chem, 2007).

The term IC50 denotes the concentration that inhibits the measured activity by half. A high value points to a need for much substance.

Experiment [1] in a line: Antiproliferative activity against human WI38 cells after 72 hrs by MTT assay. It counts as cell-based. The following applies: WI-38, 72 h. For orientation: Tetrazolium dyes change colour on reduction, which living cells bring about.
Another experiment concerns HeLa. As to the kind of experiment: Antiproliferative activity against human HeLa cells after 72 hrs by MTT assay. It counts as functional, cell-based.
The subject of a further experiment is SW-620. As to the kind of experiment: Antiproliferative activity against human SW620 cells after 72 hrs by MTT assay. It counts as functional, cell-based. The following applies: SW-620, 72 h.
Experiment [2] is described as follows: Binding affinity to poly A-poly U 0.15 mol/dm^3 by UV/vis titration.
A short description of experiment [3]: Binding affinity to poly dA-poly dT 0.15 mol/dm^3 by UV/vis titration.
The subject of experiment [4] is MIA PaCa-2. As to the kind of experiment: Effect on cell cycle in human MiaPaCa2 cells assessed as accumulation at G2/M phase at 5 uM after 24 hrs by […]. It counts as functional.
In experiment [5] the test system is MIA PaCa-2. As to the kind of experiment: Effect on cell cycle in human MiaPaCa2 cells assessed as accumulation at S phase at 5 uM after 24 hrs by […]. It counts as functional.
The subject of experiment [6] is MIA PaCa-2. Description: Effect on cell cycle in human MiaPaCa2 cells assessed as accumulation at S phase at 5 uM after 48 hrs by […]. It counts as functional.
In experiment [7] the test system is MIA PaCa-2. Description: Effect on cell cycle in human MiaPaCa2 cells assessed as accumulation at G2/M phase at 5 uM after 72 hrs by […]. It counts as functional.
A further experiment has as its system MCF7. Description: Antiproliferative activity against human MCF7 cells after 72 hrs by MTT assay. It counts as functional, cell-based. The following applies: MCF7, 72 h.
In experiment [8] the test system is MIA PaCa-2. Description: Effect on cell cycle in human MiaPaCa2 cells assessed as accumulation at sub-G1 phase at 5 uM after 24 hrs by […]. It counts as functional.
Experiment [9] concerns MIA PaCa-2. Description: Effect on cell cycle in human MiaPaCa2 cells assessed as accumulation at G1/G0 phase at 5 uM after 24 hrs by […]. It counts as functional.
For experiment [10], the system named is MIA PaCa-2. As to the kind of experiment: Antiproliferative activity against human MiaPaCa2 cells after 72 hrs by MTT assay a. It counts as functional, cell-based. The following applies: MIA PaCa-2, 72 h.
The subject of experiment [11] is MIA PaCa-2. Description: Effect on cell cycle in human MiaPaCa2 cells assessed as accumulation at G2/M phase at 5 uM after 48 hrs by […]. It counts as functional.
Experiment [12] has as its system MIA PaCa-2. As to the kind of experiment: Effect on cell cycle in human MiaPaCa2 cells assessed as accumulation at S phase at 5 uM after 72 hrs by […]. It counts as functional.
Experiment [13] concerns MIA PaCa-2. Description: Effect on cell cycle in human MiaPaCa2 cells assessed as accumulation at G1/G0 phase at 5 uM after 72 hrs by […]. It counts as functional.
Experiment [14] can be described thus: Binding affinity to poly A-poly U 0.05 mol/dm^3 by UV/vis titration.
The test system of another experiment is HEp-2. As to the kind of experiment: Antiproliferative activity against human Hep2 cells after 72 hrs by MTT assay. It counts as functional, cell-based. The following applies: HEp-2, 72 h.
Experiment [15] concerns MIA PaCa-2. As to the kind of experiment: Effect on cell cycle in human MiaPaCa2 cells assessed as accumulation at sub-G1 phase at 5 uM after 48 hrs by Annexin-V assay. It counts as functional.
Experiment [16] can be described thus: Binding affinity to poly G-poly C 0.05 mol/dm^3 by UV/vis titration.
Experiment [17] can be described thus: Binding affinity to poly dA-poly dT 0.05 mol/dm^3 by UV/vis titration.
For experiment [18], the system named is MIA PaCa-2. As to the kind of experiment: Effect on cell cycle in human MiaPaCa2 cells assessed as accumulation at G1/G0 phase at 5 uM after 48 hrs by […]. It counts as functional.
In experiment [19] the test system is MIA PaCa-2. As to the kind of experiment: Effect on cell cycle in human MiaPaCa2 cells assessed as accumulation at sub-G1 phase at 5 uM after 72 hrs by Annexin-V assay. It counts as functional.

On to `C1=C(CCC[n+]2ccccc2)\C=N\c2ccccc2N/C=C(CCC[n+]2ccccc2)\C=N\c2ccccc2N/1.[Br-].[Br-]`, for which the 50% inhibitory concentration (IC50) in experiment [1] stood at 10 µM; in the experiment with HeLa it was 2 µM; in the experiment on SW-620, 18.5 µM; with MCF7, 6 µM; with MIA PaCa-2 [10] it was 1.2 µM; with HEp-2 it was 11 µM. For the same compound, the log Ks came out at 5.4 in experiment [2]; 4.77 in experiment [3]; 5.19 in [14]; 4.2 in [16]; 6.1 in [17]. In addition, the Activity is given as 24.054% in the experiment with MIA PaCa-2 [4]; 28.4% in the experiment with MIA PaCa-2 [5]; 17.538% in the experiment on MIA PaCa-2 [6]; 10.7% with MIA PaCa-2 [7]; 9.2% in the experiment with MIA PaCa-2 [8]; 47.56% in the experiment with MIA PaCa-2 [9]. Further, the Activity with MIA PaCa-2 [11] is listed as 16.38%; with MIA PaCa-2 [12], 31.03%; in the experiment on MIA PaCa-2 [13] it was 58.34%; with MIA PaCa-2 [15] it was 11%; in the experiment with MIA PaCa-2 [18] it was 65.59%; with MIA PaCa-2 [19], 40%.
For `C[n+]1ccc(CCC(=O)OCCCC2=C/Nc3ccccc3/N=C/C(CCCOC(=O)CCc3cc[n+](C)cc3)=C\Nc3ccccc3\N=C\2)cc1.[Br-].[Br-]`, the IC50 in experiment [1] was 4 µM; in the experiment on HeLa, 13.5 µM; in the experiment on SW-620, 4 µM; with MCF7, 2.6 µM; with MIA PaCa-2 [10], 2.6 µM; in the experiment on HEp-2, 38 µM. In addition, the Activity amounted to 21.76% in the experiment on MIA PaCa-2 [4]; 16.29% with MIA PaCa-2 [5]; 9.7% with MIA PaCa-2 [6]; 10.5% with MIA PaCa-2 [7]; 5.3% with MIA PaCa-2 [8]; 62.32% in the experiment with MIA PaCa-2 [9]. Further, the Activity in the experiment with MIA PaCa-2 [11] stood at 10.98%; in the experiment on MIA PaCa-2 [12], 5.39%; in the experiment on MIA PaCa-2 [13], 84.02%; with MIA PaCa-2 [15], 10%; in the experiment on MIA PaCa-2 [18], 79.3%; with MIA PaCa-2 [19], 20%. Besides, the log Ks in experiment [14] stood at 5.9; in experiment [16], 6.1; in experiment [17], 5.3.
Consider `C1=C(CCC[n+]2ccc(-c3ccncc3)cc2)\C=N\c2ccccc2N/C=C(CCC[n+]2ccc(-c3ccncc3)cc2)\C=N\c2ccccc2N/1`, for which the IC50 is over 100 µM in experiment [1]; over 100 µM in the experiment with HeLa; over 50 µM in the experiment on SW-620; at least 100 µM in the experiment with MCF7; over 100 µM in the experiment on MIA PaCa-2 [10]; over 100 µM with HEp-2.
